Positions count from the first letter of the chain named. “And” between values parts separate entries of the source, which are not always exact repeats. Identical values can stand only once.
What was measured:
PYR1^4F / ΔN-HAB1 = target: T1, PYR1^4F / ΔN-HAB1 (Arabidopsis thaliana, UniProt O49686, A160G/F159V/H115Q/Y120G); experiment: Ligand/receptor-mediated PP2C (ΔN-HAB1 phosphatase) inhibition, PYR1^4F; format: biochemical
T1 construct: 6xHis (N); made in house; host or cells: E. coli BL21 (DE3) pLysS
T1 sequence (O49686 with tags, fused parts or gaps H115Q/Y120G/F159V/A160G): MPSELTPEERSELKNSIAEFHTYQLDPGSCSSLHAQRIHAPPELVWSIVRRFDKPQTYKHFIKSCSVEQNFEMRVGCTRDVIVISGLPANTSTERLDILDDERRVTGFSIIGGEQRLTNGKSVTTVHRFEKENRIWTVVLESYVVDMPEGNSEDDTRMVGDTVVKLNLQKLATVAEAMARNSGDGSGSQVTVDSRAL
T1 sequence (Q9CAJ0 179-511 partner): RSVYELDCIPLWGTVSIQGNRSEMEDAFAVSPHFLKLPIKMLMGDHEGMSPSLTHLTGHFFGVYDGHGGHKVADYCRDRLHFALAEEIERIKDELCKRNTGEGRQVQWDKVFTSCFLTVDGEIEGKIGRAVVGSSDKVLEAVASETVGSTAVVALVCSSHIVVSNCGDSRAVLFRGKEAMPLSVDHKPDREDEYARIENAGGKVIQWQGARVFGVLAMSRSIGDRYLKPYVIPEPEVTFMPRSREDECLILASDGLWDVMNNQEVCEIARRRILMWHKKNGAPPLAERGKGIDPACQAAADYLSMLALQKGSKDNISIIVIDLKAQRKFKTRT
Experimental: Coding sequences of the cannabinoid sensors were cloned into the protein expression vector pET28a to encode 6×His-tag-receptor fusions. Constructs were sequenced and transformed into the BL21 (DE3) pLysS E. coli strain for heterologous expression with IPTG (1 mM), followed by purification, using affinity chromatography, as previously reported. In vitro validation of evolved sensors was performed by using recombinant sensors and ΔN-HAB1 (HAB1 Δ1–178, ref. [36]) proteins, as previously described. […] Cannabinoid concentration curves ranged from 4 to 10,000 nM, and median inhibitory concentrations for PP2C inhibition were obtained via fluorescent measurement in the presence of 1 mM 4-methylumbelliferyl phosphate.

PYR1^WIN-M = target: T2, PYR1^WIN-M (Arabidopsis thaliana, UniProt O49686, A160I/D26G/E4G/F159A/H60P/K59Q/N90S/Y23H); experiment: ELISA-like plate assay, immobilized PYR1^WIN-M, biotinylated ΔN-HAB1^T+; format: binding; conditions: replicates
T2 construct: made in house
T2 sequence (O49686 with tags, fused parts or gaps E4G/Y23H/D26G/K59Q/H60P/N90S/F159A/A160I): T1 sequence (O49686 with tags, fused parts or gaps H115Q/Y120G/F159V/A160G) with E4G, Y23H, D26G, K59Q, H60P, N90S, Q115H, G120Y, V159A, G160I

PYR1^4F [1] = target: T3, PYR1^4F (Arabidopsis thaliana, UniProt O49686, A160G/F159V/H115Q/Y120G); experiment: Yeast transcriptional activation circuit Z4-PYR1/VP64-ΔN-HAB1, GFP reporter, PYR1^4F
T3 sequence (O49686 with tags, fused parts or gaps H115Q/Y120G/F159V/A160G): T1 sequence (O49686 with tags, fused parts or gaps H115Q/Y120G/F159V/A160G)
T3 sequence (Q9CAJ0 179-511 partner): T1 sequence (Q9CAJ0 179-511 partner)

PYR1^4F [2] = target: T3, PYR1^4F; experiment: Split NanoLuc luciferase complementation in yeast, NLuc^N-PYR1^4F/NLuc^C-ΔN-HAB1; format: cell-based; set-up: >PYR1-4FMDMB; expressed in transfected cells; host or cells: Saccharomyces cerevisiae BY4742
PYR1^DIAZI / HAB1 = target: T4, PYR1^DIAZI / HAB1 (Arabidopsis thaliana, UniProt O49686, A160V/E8G/F108Y/F159G/L87M/M158V/V81Y); experiment: Ligand/receptor-mediated PP2C (HAB1 phosphatase) inhibition, PYR1^DIAZI; format: biochemical
T4 construct: made in house
T4 sequence (O49686 with tags, fused parts or gaps E8G/V81Y/L87M/F108Y/M158V/F159G/A160V): T1 sequence (O49686 with tags, fused parts or gaps H115Q/Y120G/F159V/A160G) with E8G, V81Y, L87M, F108Y, Q115H, G120Y, M158V, V159G, G160V

PYR1^PIRI / HAB1 = target: T5, PYR1^PIRI / HAB1 (Arabidopsis thaliana, UniProt O49686, A160T/E130G/F159T/K59R/N119S/S122Q/S92M/V174A); experiment: Ligand/receptor-mediated PP2C (HAB1 phosphatase) inhibition, PYR1^PIRI; format: biochemical; conditions: HAB1 inhibition and Y2H assays
T5 construct: made in house
T5 sequence (O49686 with tags, fused parts or gaps K59R/S92M/N119S/S122Q/E130G/F159T/A160T/V174A): T1 sequence (O49686 with tags, fused parts or gaps H115Q/Y120G/F159V/A160G) with K59R, S92M, Q115H, N119S, G120Y, S122Q, E130G, V159T, G160T, V174A

PYR1^DIAZI-M = target: T6, PYR1^DIAZI-M (Arabidopsis thaliana, UniProt O49686, A160V/E8G/F108Y/F159G/H60P/L87M/M158V/N90S/V81Y); experiment: ELISA-like plate assay, immobilized PYR1^DIAZI-M, biotinylated ΔN-HAB1^T+; format: binding; conditions: tested at 20 μM, ELISA-format
T6 construct: made in house
T6 sequence (O49686 with tags, fused parts or gaps E8G/H60P/V81Y/L87M/N90S/F108Y/M158V/F159G/A160V): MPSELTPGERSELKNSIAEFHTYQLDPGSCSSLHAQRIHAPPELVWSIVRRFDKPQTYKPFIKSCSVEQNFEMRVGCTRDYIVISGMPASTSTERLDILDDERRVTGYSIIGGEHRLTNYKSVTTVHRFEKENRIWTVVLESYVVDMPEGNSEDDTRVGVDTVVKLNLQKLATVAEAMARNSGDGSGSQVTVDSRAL

PYR1^DIAZI [3] = target: T7, PYR1^DIAZI (Arabidopsis thaliana, UniProt O49686, A160V/E8G/F108Y/F159G/L87M/M158V/V81Y); experiment: Yeast transcriptional activation circuit Z4-PYR1/VP64-ΔN-HAB1, GFP reporter, PYR1^DIAZI; conditions: panel of six chemically similar organophosphates
PYR1^DIAZI [4] = target: T7, PYR1^DIAZI; experiment: Split NanoLuc luciferase complementation in yeast, NLuc^N-PYR1^DIAZI/NLuc^C-HAB1; format: cell-based; set-up: >PYR1-DIAZI; expressed in transfected cells; host or cells: Saccharomyces cerevisiae BY4742

T7 sequence (O49686 other isoform, or with tags, fused parts or gaps E8G/V81Y/L87M/F108Y/M158V/F159G/A160V, one chain of several): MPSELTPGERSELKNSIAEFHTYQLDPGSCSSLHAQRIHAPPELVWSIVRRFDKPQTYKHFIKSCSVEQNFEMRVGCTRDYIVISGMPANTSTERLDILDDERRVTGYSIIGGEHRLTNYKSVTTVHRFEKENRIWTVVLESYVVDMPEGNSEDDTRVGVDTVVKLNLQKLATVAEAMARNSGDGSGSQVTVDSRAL

SMILES	EC50 (PYR1^4F / ΔN-HAB1)	ELISA signal generation, receptor cross-reactivity (source data) (PYR1^WIN-M; cannabinoid at 2 nM)	ELISA signal generation, receptor cross-reactivity (source data) (PYR1^WIN-M; cannabinoid at 2 μM)	EC50 (PYR1^4F [1])	EC50 (PYR1^4F [2])	EC50 (PYR1^DIAZI / HAB1)	ligand concentrations required for activation of PYR1^PIRI above background (PYR1^PIRI / HAB1)	discrimination of on-target ligand from other organophosphates by PYR1^DIAZI (PYR1^DIAZI-M)	PYR1^DIAZI EC50 to on-target ligand relative to other organophosphates (PYR1^DIAZI [3])	EC50 (PYR1^DIAZI [4])
COC(=O)C(NC(=O)c1nn(CCCCF)c2ccccc12)C(C)(C)C (stereo not shown) [4F-MDMB, 4F-MDMB-BUTINACA]	102 nM	0.813 and 0.154 and 0.125	0.116 and 0.117 and 0.101	23 nM	25 nM	–	–	–	–	–
CCOP(=S)(OCC)Oc1cc(C)nc(C(C)C)n1 [Diazinon, diazinon]	–	–	–	–	–	36 nM	high-nanomolar to low-micromolar	good discrimination	greater than tenfold lower than all other molecules profiled	24 nM
